This note sets out measurements from a melting point compilation (Tetko et al.; mined from patent text by program, amines drawn as free bases though some values may be those of a salt).

What is called melting point is the temperature, or range, at which the solid turns liquid. For the compound `O=C(NC1=NCCS1)c1cnc2c(C(F)(F)F)cccc2c1O`, the melting point lay in the range of 267 to 268 °C. The same measure for `Cc1cc2c(cc1Cl)C(c1ccccc1Cl)C(=O)N2` (stereo not given): 203 to 209 °C; for `COc1cc(N)c(Cl)cc1C(=O)NCC1CCN(CCCCCNC(=O)Nc2ccccc2)CC1`: 214 to 217 °C; for `Cc1cccc(N(c2ccccc2)c2ccc3c(c2)C(CCCO)(CCCO)c2cc(N(c4ccccc4)c4cccc(C)c4)ccc2-3)c1`: 216 to 217 °C. For `O=C(O)CNC(=O)NC(CSC(=O)Nc1ccccc1)Cc1ccccc1` (stereo not given), the melting point lay in the range of 179 to 181 °C. `N#Cc1ccc(C(F)(F)F)cn1` gave a melting point of 36 to 38 °C. Then `CC(C)C[C@H](NC(=O)OC(c1ccccc1)c1ccccc1)C(=O)Oc1c(Cl)c(Cl)c(Cl)c(Cl)c1Cl`, with 84 to 86 °C; and `COc1ccc(C(=O)c2ccc(OCc3nc(-c4cccc(OS(C)(=O)=O)c4)oc3C)cc2)c(OC(C)(C)C(=O)O)c1`, with 182 to 183 °C; and `Cc1c(-c2ccccc2)oc2c(CCl)cccc2c1=O`, with 112 to 113 °C. In turn, `O=C(O)C1COc2ccc(O)cc2O1` (stereo not given) displayed a melting point of 204 °C. The same measure for `O=C(O)c1ccc2c(c1)C(=O)N(c1ccccc1C(=O)O)C2=O`: 262 to 264 °C. `CC(=O)Nc1nn(C)c2nc3n(c(=O)c12)CCS3` showed a melting point of 250 to 252 °C. Then `C[Si](C)(C)/C=C/c1c(N)nc(-c2ccc(Cl)c(F)c2F)nc1C(=O)O`, with 155 to 157 °C. In the case of `CCOC(=O)c1c(C(=O)Nc2ccc(Cl)cc2C)cccc1[N+](=O)[O-]`, the melting point lay in the range of 164 to 165 °C.

`CC(C)CCOc1ccc(-c2c(Cl)c(CCl)nc3sc4c(c23)CCN(Cc2ccccc2)C4)cc1` showed a melting point of 149 to 150 °C. Take `COc1ccccc1NC(=O)Nc1nc(Nc2ccccc2-c2ccccc2)nc(N(CCC(=O)O)CCc2c[nH]c3ccccc23)n1`: the melting point is 115 to 120 °C. In the case of `CS(=O)(=O)OCc1cn(-c2ccc(N3CCOCC3)c(F)c2)nn1`, the melting point stood at 158 °C.

In turn, `CC(C)(C(=O)O)C(c1ccc(OCc2ccc3ccccc3n2)cc1)c1ccc(OCc2ccc3ccccc3n2)cc1` showed a melting point of 124 to 127 °C. Compound `CCCCN1CCC(NC(=O)c2cnc3c(OC)cccc3c2Nc2ccc(C(=O)NC3CCN(Cc4ccccc4)CC3)cc2)CC1` displayed a melting point of 215 to 220 °C. Compound `N#CCC1Cn2cccc2C1=O` (stereo not given) registered a melting point of 68 °C.

Consider `CN1CCN(c2cccc3c2C[C@H](NC(=O)c2ccccc2)CC3)CC1`, for which the melting point was in the range of 195 to 196 °C. The same measure for `COc1ccccc1S(=O)(=O)N(C)c1cccc2cc(C3=NCC(CC(=O)N4CCC(O)CC4)S3)[nH]c12` (stereo not given): 166 to 167 °C; for `O=C(O)C/C(C(=O)O)=C(\CCCCCCCCCCCCCCCCOS(=O)(=O)O)C(=O)O`: 63 to 65 °C; for `COC(=O)CCc1ccc(-n2cn[nH]c2=O)cc1`: 174 to 176 °C. For the compound `Fc1ccc(-c2ccccc2)c(F)c1`, the melting point lay within 63 to 65 °C. `CCOC(=O)c1cc2c(cn1)[nH]c1ccccc12` registered a melting point of 229 °C. Then `CCCCCCCC1=CC(=O)N(Cc2ccccc2)C1=CBr`, with 52 to 55 °C; and `Cc1ccc([N+](=O)[O-])cc1-c1cn(C)cc(-c2ccccc2)c1=O`, with 185 to 187 °C; and `Cc1cccc(SCCC(=O)O)c1`, with 73 to 75.5 °C. Compound `COc1ccc(C(OCC2OC(n3cnc4c(=O)[nH]c(NC(=O)Cc5ccc(Br)cc5)nc43)CC2O)(c2ccccc2)c2ccc(OC)cc2)cc1` (stereo not given) returned a melting point of 150 to 155 °C. In the case of `O=C(CNc1ccc2cn[nH]c2c1)N1CCC(Cc2ccccc2)CC1`, the melting point lay in the range of 179 to 182 °C.

As to `CC(C)(C)[S@](=O)N1CCCC[C@@H]1c1ccccc1`, the melting point fell in the range of 45 to 50 °C. Turning to `COC(=O)c1cc([N+](=O)[O-])c(N)c(F)c1F`, the melting point was determined as 184 °C.

Compound `Nc1ccc(S(=O)(=O)c2cc(Cl)nc(Cl)c2)cc1` had a melting point of 190 to 192 °C. The same measure for `CCOC(=O)c1c(C(F)(F)F)nc(C(F)F)c(C(=O)OC)c1CS(C)(=O)=O`: 110 to 112 °C; for `O=C1CCCc2cc(O)c(Cl)c(Cl)c21`: 244 to 246 °C. The same measure for `Cc1ccc(Cl)cc1N1C(=O)CN(C(C)C)C1=S`: 142 to 144 °C. The compound `c1csc(-c2nc3cnccc3[nH]2)c1` came in with a melting point of 265 to 268 °C. Consider `O=C(O)c1ccc(N2C(=O)CCC2(CO)CO)cc1`, for which the melting point lay in the range of 195 to 197 °C.

`O=C(O)c1cc2nc(C(F)(F)F)ccc2n1Cc1cccc(F)c1` displayed a melting point of 254 to 255 °C.

`Cc1cn(C)cc1C(=O)O` came in with a melting point of 166 to 168 °C. Then `CCCCn1cc(C(=O)C(=O)O)c2cc(-c3ccc(OC)cc3)ccc21`, with 172 to 173 °C. The same measure for `O=C(O)c1cc(-c2ccccc2)ccc1O`: 214 to 216 °C; for `CC(C(=O)c1ccc(Cl)c(Cl)c1)C(O)C(=O)O` (stereo not given): 103 to 104 °C; for `Cc1ccc2c(c1F)N(C1CC1)CNS2(=O)=O`: 135 to 138 °C. In turn, `COc1ccc(Oc2cccc(C(F)(F)F)c2)c(C(=O)O)c1` returned a melting point of 124 °C. Then `Clc1nnc(Cl)c2sccc12`, with 260 to 263 °C; and `O=C(O)c1ccccc1Oc1ccccc1O`, with 147 to 149 °C. The same measure for `Cc1ccc(-c2c(C(=O)NCc3cc(C(F)(F)F)cc(C(F)(F)F)c3)n(CCC(C)CO)c(=O)c3ncccc23)cc1` (racemic): 129 to 130 °C; for `CCCCCCCCCCCCCCCCOC(=O)OC(C)=CC(C)=O`: 33 to 35 °C; for `OCC1=CCN(Cc2ccccc2)CC1`: 57 to 60 °C. Then `Cc1ccc(-n2nc(C(F)F)cc2-c2ccc(S(C)(=O)=O)cc2)cc1Cl`, with 137 to 139 °C; and `CCCCCS(=O)(=O)NC(=O)/C=C/c1ccc(OCCC(C)=O)cc1Oc1ncc(C(F)(F)F)cc1Cl`, with 180 to 181 °C; and `COc1ccc(C(O)c2cccnc2)cc1OC` (stereo not given), with 76 to 78 °C. In turn, `Cc1ccc2c(c1)c(C1=C(Br)C(=O)N(C)C1=O)cn2C` displayed a melting point of 107 to 110 °C. `COc1ccc(CC(=O)O)cc1C(C)(C)C` came in with a melting point of 93 to 94 °C. The compound `CCC(C(C)C)C(OC(C)=O)C(OC(C)=O)C(C)C1CCC2C3CC(=O)C4CC=CCC4(C)C3CCC12C` (stereo not given) came in with a melting point of 116 to 118 °C. For `CCCC[C@H](NC(=O)OC(C)(C)C)C(=O)CSCc1ccsc1`, the melting point was in the range of 43 to 45 °C. The same measure for `CCCCC(=O)Nc1ccc(C(=O)OC)cc1[N+](=O)[O-]`: 106 to 107 °C; for `CCOC(=O)C(=O)Nc1ccc(-n2ccnc2)cc1`: 177 to 180 °C.

`CCC(CC)c1nn(-c2ccc(Br)cn2)cc1CCCOc1c(CC(=O)O)cccc1OC` gave a melting point of 94 to 95 °C. Compound `N#CC(=Cc1ccc(O)c(O)c1)C(=O)Nc1ccc(Cl)cc1` had a melting point of 290 °C. Then `Fc1ccccc1-c1nc(Cl)nc2ccccc12`, with 141 °C; and `CC(=O)NCCCc1ccc(CCl)cc1`, with 89 to 90 °C. Then `CCOC(=O)C(C)O/N=C(\C(=O)O)c1csc(N)n1` (stereo not given), with 166 °C.
